{
  "source": "patent US20090123581A1",
  "about": "“COLLAGEN CROSS-LINKING AGENTS ON DENTAL RESTORATIVE TREATMENT AND PREVENTIVE DENTISTRY” (THE BOARD OF TRUSTEES OF THE UNIVERSITY OF ILLINOIS, priority 2006, published 2009)",
  "assay": "Ultimate tensile strength (UTS) of demineralized dentin after cross-linker treatment (Example 1)",
  "set-up": "species or system human",
  "conditions": "for Ultimate tensile strength, mean: pH 7.4",
  "source_text": "Fixation Processes: Ten sound freshly extracted human molars were used in this study. The teeth were thawed, cleaned of adhering soft tissues, and the occlusal surfaces were ground flat with #320 grit Silicon Carbide paper under running water to remove part of the enamel. Flattening of the occlusal surface by removal of the cusps enables accurate sectioning of samples in beam shape. Teeth were sectioned into 0.5±0.1 by 0.5±0.1 mm thick beams (n=20 beams per tooth) with a slow speed diamond wafering blade (Buehler-Series 15LC Diamond, Lake Bluff, Ill., USA) under constant water coolant (FIG. 1A).\nThe slabs were randomly divided into two groups: 1) undemineralized dentin and 2) demineralized dentin (FIG. 1A). In Group 2, dentin beams were immersed in 10% phosphoric acid solution (Fisher Scientific, New Jersey, N.J.) for a period of 5 hours. X-rays were taken from the specimens to verify complete tissue demineralization. Specimens were thoroughly rinsed with distilled water for 10 minutes to remove any residue of the phosphoric acid.\nSpecimens from groups 1 and 2 were subdivided according to the dentin treatment (FIG. 1B). In Treatment A, specimens were immersed in PBS solution (pH: 7.4) as a control. In Treatment B, specimens were immersed in 0.5% Proanthocyanidin (MegaNatural—Polyphenolics Ind.) PBS solution (PA) at a pH of 7.4. In Treatment C, specimens were immersed in 0.625% Genipin (Wako Pure Chemical Ind.) PBS solution (GE) at a pH of 7.4. In Treatment D, specimens were immersed in 5% glutaraldehyde solution (GD) (Fisher Scientific, New Jersey, N.J.) at a pH of 7.4. Specimens were kept in their respective solutions for 4 and 40 hours at room temperature. After the incubation periods, specimens were thoroughly rinsed with distilled and deionized water to remove any remains of cross-linking agents and buffer.\nUTS testing: For UTS evaluation, the specimens were glued with a cyanoacrylate adhesive (Zapit—Dental Ventures of America Inc., Corona, Calif.) to a Ciucchi's jig, which was mounted on a universal testing machine (EZ Test, Shimazu Co., Kyoto, Japan) and subjected to microtensile testing at a crosshead speed of 1 mm/min (FIG. 1C). Means and standard deviations were calculated and expressed in microtensile bond strengths (MPa). Statistical analysis was performed using a two-way ANOVA and Fisher's PLSD tests (p<0.05).",
  "data": [
    {"compound": "O=CCCCC=O", "note": "[GD, glutaraldehyde]", "values": [
      {"measurement": "Ultimate tensile strength, mean", "setting": "4 hours in 0.5% PA, 0.625% GE or 5% GD", "result": 13.1, "unit": "MPa"},
      {"measurement": "Ultimate tensile strength, mean", "setting": "40 hours in 0.5% PA, 0.625% GE or 5% GD", "result": 9.1, "unit": "MPa"},
      {"measurement": "Ultimate tensile strength, pooled data", "setting": "pooled over 4 and 40 hours, 0.5% PA, 0.625% GE or 5% GD", "result": 11.1, "unit": "BC MPa"},
      {"measurement": "UTS values compared to the control group (statistics)", "setting": "two-way ANOVA, Fisher's PLSD", "result": "no statistically significant differences"}
    ]}
  ]
}
